Data on 24 compounds can be found in ChEMBL document CHEMBL1129789, “Dopamine D3 and D4 receptor antagonists: synthesis and structure--activity relationships of (S)-(+)-N-(1-Benzyl-3-pyrrolidinyl)-5-chloro-4- [(cyclopropylcarbonyl) amino]-2-methoxybenzamide (YM-43611) and related compounds” (J Med Chem, 1996).

The test system of assay [1] is Mus musculus. The assay is described as follows: Compound was tested for inhibition of Apomorphine induced climbing in Mice on subcutaneous administration. In kind it is functional. The conditions noted are these: sc.
The target of another assay is T1, D(4) dopamine receptor (Homo sapiens, UniProt P21917).
T1 sequence (P21917 whole entry): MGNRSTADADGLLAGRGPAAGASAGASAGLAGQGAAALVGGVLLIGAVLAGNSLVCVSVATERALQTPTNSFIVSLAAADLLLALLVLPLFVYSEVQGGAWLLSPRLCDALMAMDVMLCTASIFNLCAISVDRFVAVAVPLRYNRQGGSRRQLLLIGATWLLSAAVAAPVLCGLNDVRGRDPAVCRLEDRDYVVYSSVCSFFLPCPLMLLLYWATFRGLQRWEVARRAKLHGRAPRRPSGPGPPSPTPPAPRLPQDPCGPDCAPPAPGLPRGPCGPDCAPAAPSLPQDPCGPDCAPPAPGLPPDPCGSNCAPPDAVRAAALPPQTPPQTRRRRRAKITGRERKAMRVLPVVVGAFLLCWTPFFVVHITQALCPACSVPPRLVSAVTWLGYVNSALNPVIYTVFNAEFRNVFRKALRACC
The assay is described as follows: biochemical.

The target of a further assay is D(3) dopamine receptor (Rattus norvegicus, UniProt P19020). Put plainly: biochemical.
Sequence of D(3) dopamine receptor (P19020 whole entry): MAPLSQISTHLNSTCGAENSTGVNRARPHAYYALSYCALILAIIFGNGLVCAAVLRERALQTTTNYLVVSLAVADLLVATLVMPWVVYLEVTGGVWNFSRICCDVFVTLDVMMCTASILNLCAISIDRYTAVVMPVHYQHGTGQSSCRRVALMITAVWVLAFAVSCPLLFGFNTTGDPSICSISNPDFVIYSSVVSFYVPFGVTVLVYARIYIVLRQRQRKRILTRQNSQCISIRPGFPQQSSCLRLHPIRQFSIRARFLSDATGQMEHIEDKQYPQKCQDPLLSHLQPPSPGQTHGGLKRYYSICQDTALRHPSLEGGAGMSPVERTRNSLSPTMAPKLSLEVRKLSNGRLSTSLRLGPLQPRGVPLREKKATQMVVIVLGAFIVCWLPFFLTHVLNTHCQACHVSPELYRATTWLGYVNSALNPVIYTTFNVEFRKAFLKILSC
Assay [2] has as its system Mus musculus. Put plainly: Inhibition of Apomorphine induced climbing in mice administered sc. In kind it is functional.
The species named for assay [3] is Mus musculus. The assay is described as follows: Compound was tested for inhibition of Apomorphine induced climbing in Mice. In kind it is functional.
The next assay deals with Adrenergic receptor beta (Rattus norvegicus, UniProt P18090+P10608+P26255). The assay is described as follows: Compound was tested for the binding affinity against rat cortical Beta adrenergic receptor by Radio ligand [3H]dihydroalprenolol binding assay. In kind it is protein assay.

Where only a bound is given, the exact number is not on record here.

Description for D(3) dopamine receptor: Binding affinity to rat Dopamine receptor D3 expressed in CHO cells was determined using [125 I] iodosulpride as radioligand

As to `COc1cc(NC(=O)C2CCC2)c(Cl)cc1C(=O)N[C@H]1CCN(Cc2ccccc2)C1`, the ED50 in the assay on Mus musculus [1] stood at 0.14 mg/kg. Also, the inhibitory constant (Ki) on D(4) dopamine receptor was 5.2 nM; at D(3) dopamine receptor it was 36 nM.
Regarding `COc1cc(NC(=O)C2CCC2)c(Cl)cc1C(=O)N[C@@H]1CCN(Cc2ccccc2)C1`, the values for the Ki at D(4) dopamine receptor and on D(3) dopamine receptor were 7 nM and 100 nM, respectively.
The compound `COc1cc(NC(=O)C2CC2)c(Cl)cc1C(=O)N[C@@H]1CCN(Cc2ccccc2)C1` had an ED50 in the assay with Mus musculus [1] of 0.45 mg/kg. In addition, the results for the inhibitory constant (Ki) on D(4) dopamine receptor and at D(3) dopamine receptor were 5.6 nM and 60 nM, respectively.
On to `CNc1cc(OC)c(C(=O)N[C@H]2CCN(C3C4CCCC3CCC4)C2)cc1Cl` (stereo partly drawn), for which the Ki was 0.67 nM at D(4) dopamine receptor and 0.24 nM on D(3) dopamine receptor.
In the case of `COc1cc(N)c(Cl)cc1C(=O)N[C@@H]1CCN(Cc2ccccc2)C1`, the affinity on D(3) dopamine receptor, expressed as Ki, was 1.9 nM.
With `COc1cc(N)c(Cl)cc1C(=O)N[C@H]1CCN(Cc2ccccc2)C1`, in the assay on Mus musculus [2], the ED50 is 0.071 mg/kg. The compound further came in with a Ki on D(3) dopamine receptor of 0.58 nM.
For the compound `COc1cc(NC(=O)C(F)(F)F)c(Cl)cc1C(=O)N[C@H]1CCN(Cc2ccccc2)C1`, the inhibition constant (Ki) at D(4) dopamine receptor came to 1.9 nM; at D(3) dopamine receptor, 5.1 nM.
For the compound `COc1cc(NC(=O)c2ccccc2)c(Cl)cc1C(=O)N[C@H]1CCN(Cc2ccccc2)C1`, the values for the Ki at D(4) dopamine receptor and at D(3) dopamine receptor were 87 nM and 200 nM, respectively.
Taken in the same sequence, the figures for `COc1cc(NC(=O)C2CC2)c(Cl)cc1C(=O)N[C@H]1CCN(CCc2ccccc2)C1` were 3.4 nM and 33 nM.
Turning to `COc1cc(NC(=O)C2CCCC2)c(Cl)cc1C(=O)N[C@H]1CCN(Cc2ccccc2)C1`, the ED50 in the assay with Mus musculus [1] worked out at 0.28 mg/kg. In addition, the Ki on D(4) dopamine receptor turned out to be 20 nM; on D(3) dopamine receptor, 55 nM.
As to `C=CC(=O)Nc1cc(OC)c(C(=O)N[C@H]2CCN(Cc3ccccc3)C2)cc1Cl`, the values for the Ki at D(4) dopamine receptor and on D(3) dopamine receptor were 1.3 nM and 4.7 nM, respectively.
For `COc1cc(NC(=O)C2CC2)c(Cl)cc1C(=O)N[C@H]1CCN(C2CCCCCC2)C1` the same measures were 2.7 nM and 1.5 nM.
In the case of `COc1cc(NC(=O)C2CC2)c(Cl)cc1C(=O)N[C@H]1CCN(C2C3CC4CC(C3)CC2C4)C1` (stereo partly drawn), in the assay with Mus musculus [1], the 50% effective dose (ED50) is more than 10 mg/kg. The figures for the inhibition constant (Ki) at D(4) dopamine receptor and at D(3) dopamine receptor were 4.4 nM and 1.7 nM, respectively.
Take `COc1cc(NC(=O)C(C)C)c(Cl)cc1C(=O)N[C@H]1CCN(Cc2ccccc2)C1`: the values for the Ki on D(4) dopamine receptor and at D(3) dopamine receptor were 3 nM and 15 nM, respectively.
Regarding `CCC(=O)Nc1cc(OC)c(C(=O)N[C@H]2CCN(Cc3ccccc3)C2)cc1Cl`, the ED50 in the assay with Mus musculus [1] was determined as 0.31 mg/kg. Moreover, the Ki at D(4) dopamine receptor was 1.5 nM; on D(3) dopamine receptor, 5.9 nM.
For `COc1cc(NC(=O)C2CC2)c(Cl)cc1C(=O)N[C@H]1CCN(C2C3CCCC2CCC3)C1` (stereo partly drawn) the same measures were more than 10 mg/kg, 3.8 nM and 2.2 nM.
As for `COc1cc(NC(=O)C2CCCC2)c(Cl)cc1C(=O)N[C@@H]1CCN(Cc2ccccc2)C1`, the Ki was determined as 18 nM on D(4) dopamine receptor and 150 nM at D(3) dopamine receptor.
For `COc1cc(NC(=O)C2CCCCC2)c(Cl)cc1C(=O)N[C@H]1CCN(Cc2ccccc2)C1` the same measures were 110 nM and 200 nM.
Compound `COc1cc(NC(=O)C2CC2)c(Cl)cc1C(=O)N[C@H]1CCN(C2CCCCC2)C1` yielded a 50% effective dose (ED50) in the assay on Mus musculus [1] of 1.4 mg/kg. Also, the Ki at D(4) dopamine receptor came out at 2.1 nM; on D(3) dopamine receptor it was 4.4 nM.
For the compound `COc1cc(NC(=O)C2CC2)c(Cl)cc1C(=O)N[C@H]1CCN(CC2CCCCC2)C1`, the inhibitory constant (Ki) at D(4) dopamine receptor came out at 3.3 nM; on D(3) dopamine receptor, 3.7 nM.
For `COc1cc(NC(=O)C2CC2)c(Cl)cc1C(=O)N[C@H]1CCNC1`, in the assay on Mus musculus [1], the median effective dose (ED50) was more than 30 mg/kg. Besides, the inhibitory constant (Ki) at D(4) dopamine receptor stood at 2200 nM; at D(3) dopamine receptor, 3000 nM.
`CN1CCN(C2=Nc3cc(Cl)ccc3Nc3ccccc32)CC1` [CLOZAPINE]: it took a dose of 6.8 mg/kg to reach the 50% effect level in the assay listed under Mus musculus [3] (ED50).
In turn, `O=C(CCCN1CCC(O)(c2ccc(Cl)cc2)CC1)c1ccc(F)cc1` [HALOPERIDOL] gave an inhibition constant Ki on Adrenergic receptor beta of more than 10000 nM. The 50% effective dose (ED50) in the assay listed under Mus musculus [3] was 0.041 mg/kg.
For `CNc1cc(OC)c(C(=O)N[C@H]2CCN(Cc3ccccc3)[C@H]2C)cc1Cl` [NEMONAPRIDE], the 50% effect level in the assay on Mus musculus [1] (ED50) was put at a dose of 0.012 mg/kg.
